≈ marks a conversion by molar mass, not a printed value.
How the values were obtained:
Escherichia coli [1] = assay: Antibacterial activity against Escherichia coli ATCC 107 25922; assay type: functional
Acinetobacter baumannii [2] = assay: Antibacterial activity against Acinetobacter baumannii ATCC 19606 110; assay type: functional
Klebsiella pneumoniae [3] = assay: Antibacterial activity against Klebsiella pneumoniae ATCC 109 13883; assay type: functional
[4] = AUClast in Sprague-Dawley rat at 1 mg/kg, iv by LC/MS-MS analysis; assay type: ADME, organism-based; design: time 0 - last, dose 1 mg/kg, route intravenous; settings: plasma
Enterococcus faecalis [5] = assay: Antibacterial activity against tetracycline-resistant Enterococcus faecalis 159; assay type: functional
Klebsiella pneumoniae [6] = assay: Antibacterial activity against tetracycline-resistant Klebsiella pneumoniae 153; assay type: functional
Escherichia coli [7] = assay: Antibacterial activity against tetracycline-resistant Escherichia coli 133 infected in iv dosed CD-1 mouse assessed as protection from infection administered 1 hr post infection measured after 24 hrs; assay type: functional; settings: Escherichia coli, 133, iv; read-out: PD50
Streptococcus pneumoniae [8] = assay: microbe, parasite or virus in culture; assay type: functional; settings: ATCC 106 49619
Description: Antibacterial activity against Streptococcus pneumoniae ATCC 106 49619

[9] = AUClast in Sprague-Dawley rat at 10 mg/kg, po by LC/MS-MS analysis; assay type: ADME, organism-based; design: dose 10 mg/kg, route oral, time 0 - last; settings: plasma
Streptococcus pneumoniae [10] = assay: Antibacterial activity against tetracycline-resistant Streptococcus pneumoniae 160; assay type: functional
Staphylococcus aureus [11] = assay: microbe, parasite or virus in culture; assay type: functional; settings: 158
[12] = Oral bioavailability in Sprague-Dawley rat at 10 mg/kg by LC/MS-MS analysis; assay type: ADME, organism-based; settings: in vivo
Escherichia coli [13] = assay: Antibacterial activity against tetracycline-resistant Escherichia coli 155; assay type: functional
Pseudomonas aeruginosa = assay: Antibacterial activity against Pseudomonas aeruginosa ATCC 111 27853; assay type: functional
Staphylococcus aureus [14] = assay: Antibacterial activity against tetracycline-resistant Staphylococcus aureus 191 infected in iv dosed CD-1 mouse assessed as dose required for 3 log bacterial burden reduction administered 1.5 hr post infection measured after 24 hrs; assay type: functional
Staphylococcus aureus [15] = assay: Antibacterial activity against tetracycline-resistant Staphylococcus aureus 191 infected in iv dosed CD-1 mouse assessed as dose required for 1 log bacterial burden reduction administered 1.5 hr post infection measured after 24 hrs; assay type: functional
Enterobacter cloacae = assay: Antibacterial activity against Enterobacter cloacae ATCC 108 13047; assay type: functional
Escherichia coli [16] = assay: Antibacterial activity against tetracycline-resistant Escherichia coli 133 infected in iv dosed CD-1 mouse assessed as reduction in bacterial burden administered 1 hr post infection measured after 24 hrs; assay type: functional
Staphylococcus aureus [17] = assay: Antibacterial activity against tetracycline- and methicillin-resistant Staphylococcus aureus 161; assay type: functional
Staphylococcus aureus [18] = assay: Antibacterial activity against tetracycline-resistant Staphylococcus aureus 191 infected in iv dosed CD-1 mouse assessed as reduction in bacterial burden administered 1.5 hr post infection measured after 24 hrs; assay type: functional
[19] = Elimination half life in Sprague-Dawley rat at 10 mg/kg, po by LC/MS-MS analysis; assay type: ADME, organism-based; design: dose 10 mg/kg, route oral; settings: in vivo, read-out: beta t1/2 (converted)
Enterococcus faecalis [20] = assay: Antibacterial activity against Enterococcus faecalis ATCC 103 29212; assay type: functional
Staphylococcus aureus [21] = assay: Antibacterial activity against Staphylococcus aureus ATCC 101 29213; assay type: functional
Enterococcus faecalis [22] = assay: Ratio of tigecycline MIC to compound MIC for Enterococcus faecalis ATCC 103 29212; assay type: functional
Acinetobacter baumannii [23] = assay: Ratio of tigecycline MIC to compound MIC for Acinetobacter baumannii ATCC 19606 110; assay type: functional
[24] = (§1) Clearance in Sprague-Dawley rat at 1 mg/kg, iv by LC/MS-MS analysis; assay type: ADME, organism-based; design: dose 1 mg/kg, route intravenous; settings: Sprague-Dawley, in vivo
Bacterial 70S ribosome = assay: Inhibition of Escherichia coli ribosome-mediated translation after 60 mins by transcription/translation-coupled luciferase reporter gene assay; assay type: subcellular
Escherichia coli [25] = assay: Ratio of tigecycline MIC to compound MIC for Escherichia coli ATCC 107 25922; assay type: functional
Escherichia coli [26] = assay: Ratio of tetracycline IC50 to compound IC50 for Escherichia coli ribosome-mediated translation; assay type: subcellular
Staphylococcus aureus [27] = assay: Ratio of tigecycline MIC to compound MIC for Staphylococcus aureus ATCC 101 29213; assay type: functional
[28] = Elimination half life in Sprague-Dawley rat at 1 mg/kg, iv by LC/MS-MS analysis; assay type: ADME, organism-based; design: dose 1 mg/kg, route intravenous; settings: in vivo, read-out: beta t1/2 (converted)
[29] = Apparent volume of distribution in Sprague-Dawley rat at 1 mg/kg, iv by LC/MS-MS analysis; settings: in vivo
Rattus norvegicus = assay: as §1; assay type: ADME, organism-based; design: dose 1 mg/kg, route intravenous; settings: in vivo
[30] = Oral bioavailability in human; assay type: ADME, organism-based; settings: in vivo

CN(C)c1cc(NC(=O)CNC(C)(C)C)c(O)c2c1C[C@H]1C[C@H]3[C@H](N(C)C)C(O)=C(C(N)=O)C(=O)[C@@]3(O)C(O)=C1C2=O [TIGECYCLINE]
MIC (Escherichia coli [1]): 0.125 µg/mL (≈ 0.213 µM)
MIC (Acinetobacter baumannii [2]): 0.5 µg/mL (≈ 0.854 µM)
MIC (Klebsiella pneumoniae [3]): 0.25 µg/mL (≈ 0.427 µM)
AUC(0-t) [4]: 1050 ng·h/mL
MIC (Enterococcus faecalis [5]): 0.0625 µg/mL (≈ 0.107 µM)
MIC (Klebsiella pneumoniae [6]): 1 µg/mL (≈ 1.71 µM)
ED50 (Escherichia coli [7]): 3.5 mg/kg
MIC (Streptococcus pneumoniae [8]): 0.0156 µg/mL (≈ 0.0266 µM)
AUC(0-t) [9]: 107 ng·h/mL
MIC (Streptococcus pneumoniae [10]): 0.0156 µg/mL (≈ 0.0266 µM)
MIC (Staphylococcus aureus [11]): 0.125 µg/mL (≈ 0.213 µM)
bioavailability [12]: 1%
MIC (Escherichia coli [13]): 1 µg/mL (≈ 1.71 µM)
MIC (Pseudomonas aeruginosa): 16 µg/mL (≈ 27.3 µM)
Activity (Staphylococcus aureus [14]): 17.3 mg/kg
Activity (Staphylococcus aureus [15]): 3 mg/kg
MIC (Enterobacter cloacae): 0.25 µg/mL (≈ 0.427 µM)
MIC (Escherichia coli [16]): 0.125 µg/mL (≈ 0.213 µM)
MIC (Staphylococcus aureus [17]): 0.125 µg/mL (≈ 0.213 µM)
MIC (Staphylococcus aureus [18]): 0.25 µg/mL (≈ 0.427 µM)
half-life [19]: 3.98 h
MIC (Enterococcus faecalis [20]): 0.0625 µg/mL (≈ 0.107 µM)
MIC (Staphylococcus aureus [21]): 0.0625 µg/mL (≈ 0.107 µM)

CN(C)[C@@H]1C(O)=C(C(N)=O)C(=O)[C@@]2(O)C(O)=C3C(=O)c4c(O)c(NC(=O)CN5CCCC5)cc(F)c4C[C@H]3C[C@@H]12 [ERAVACYCLINE]
MIC (Escherichia coli [1]): 0.0156 µg/mL (≈ 0.0279 µM)
MIC (Acinetobacter baumannii [2]): 0.0312 µg/mL (≈ 0.0559 µM)
MIC (Klebsiella pneumoniae [3]): 0.125 µg/mL (≈ 0.224 µM)
Ratio (Enterococcus faecalis [22]): 4
Ratio (Acinetobacter baumannii [23]): 4
AUC(0-t) [4]: 1770 ng·h/mL
MIC (Enterococcus faecalis [5]): 0.0156 µg/mL (≈ 0.0279 µM)
MIC (Klebsiella pneumoniae [6]): 0.5 µg/mL (≈ 0.895 µM)
ED50 (Escherichia coli [7]): 1.3 mg/kg
MIC (Streptococcus pneumoniae [8]): 0.0156 µg/mL (≈ 0.0279 µM)
AUC(0-t) [9]: 295 ng·h/mL
clearance [24]: 9.4 mL/min/kg
IC50 (Bacterial 70S ribosome): 620 nM
MIC (Streptococcus pneumoniae [10]): 0.0156 µg/mL (≈ 0.0279 µM)
MIC (Staphylococcus aureus [11]): 0.0156 µg/mL (≈ 0.0279 µM)
bioavailability [12]: 1.7%
Ratio (Escherichia coli [25]): 4
MIC (Escherichia coli [13]): 1 µg/mL (≈ 1.79 µM)
MIC (Pseudomonas aeruginosa): 8 µg/mL (≈ 14.3 µM)
Activity (Staphylococcus aureus [14]): 3 mg/kg
Activity (Staphylococcus aureus [15]): 0.6 mg/kg
MIC (Enterobacter cloacae): 0.125 µg/mL (≈ 0.224 µM)
Ratio IC50 (Escherichia coli [26]): 7
MIC (Escherichia coli [16]): 0.125 µg/mL (≈ 0.224 µM)
Ratio (Staphylococcus aureus [27]): 4
MIC (Staphylococcus aureus [17]): 0.0156 µg/mL (≈ 0.0279 µM)
MIC (Staphylococcus aureus [18]): 0.25 µg/mL (≈ 0.448 µM)
half-life [19]: 6.9 h
half-life [28]: 4 h
Vd [29]: 3.2 L/kg
MIC (Enterococcus faecalis [20]): 0.0156 µg/mL (≈ 0.0279 µM)
MIC (Staphylococcus aureus [21]): 0.0156 µg/mL (≈ 0.0279 µM)

CN(C)[C@@H]1C(O)=C(C(N)=O)C(=O)[C@@]2(O)C(O)=C3C(=O)c4c(O)cccc4[C@@](C)(O)[C@H]3C[C@@H]12 [TETRACYCLINE]
MIC (Escherichia coli [1]): > 1 µg/mL
MIC (Acinetobacter baumannii [2]): 1 µg/mL (≈ 2.25 µM)
MIC (Klebsiella pneumoniae [3]): 2 µg/mL (≈ 4.5 µM)
AUC(0-t) [4]: 3080 ng·h/mL
MIC (Enterococcus faecalis [5]): 64 µg/mL (≈ 144 µM)
MIC (Klebsiella pneumoniae [6]): > 64 µg/mL
MIC (Streptococcus pneumoniae [8]): 0.25 µg/mL (≈ 0.563 µM)
AUC(0-t) [9]: 4540 ng·h/mL
CL (Rattus norvegicus): 9.03 mL/min/kg
IC50 (Bacterial 70S ribosome): 4580 nM
bioavailability [12]: 14.9%
MIC (Escherichia coli [13]): > 64 µg/mL
MIC (Pseudomonas aeruginosa): 16 µg/mL (≈ 36 µM)
MIC (Enterobacter cloacae): 1 µg/mL (≈ 2.25 µM)
MIC (Staphylococcus aureus [17]): 64 µg/mL (≈ 144 µM)
bioavailability [30]: 60%
MIC (Enterococcus faecalis [20]): 16 µg/mL (≈ 36 µM)
MIC (Staphylococcus aureus [21]): 0.125 µg/mL (≈ 0.281 µM)

CN[C@H](CC(C)C)C(=O)N[C@H]1C(=O)N[C@@H](CC(N)=O)C(=O)N[C@H]2C(=O)N[C@H]3C(=O)N[C@H](C(=O)N[C@H](C(=O)O)c4cc(O)cc(O)c4-c4cc3ccc4O)[C@H](O)c3ccc(c(Cl)c3)Oc3cc2cc(c3O[C@@H]2O[C@H](CO)[C@@H](O)[C@H](O)[C@H]2O[C@H]2C[C@](C)(N)[C@H](O)[C@H](C)O2)Oc2ccc(cc2Cl)[C@H]1O [VANCOMYCIN]
Activity (Staphylococcus aureus [14]): 10 mg/kg
Activity (Staphylococcus aureus [15]): 0.75 mg/kg
